Source: patent US20230382951A1, “BRAIN PENETRATING PEPTIDES” (BOARD OF REGENTS, THE UNIVERSITY OF TEXAS SYSTEM, priority 2020, published 2023)

Tested on: hCMEC/D3 cells
Settings: third round of biopanning
Method: CX7C-presenting M13 phage biopanning against hCMEC/D3 cells. A M13 phage CX7C library was used to pan against established BBB model hCMEC/D3 in vitro to identify potential brain-penetrating peptides. hCMEC/D3 cells (CELLutions Biosystems Inc.) were cultured in EndoGRO medium (Millipore, #SCME004) on Collagen I (Fisher Scientific, #44310001) coated Culture Ware (150 μg/ml, coated for at least 1 h at 37° C.)^110. […] To establish the cell monolayer on the transwell plate setup, hCMEC/D3 cells (passage 27-30) were seeded on a pre-coated collagen I (100 μg/ml for 3 h) coated 12-well transwell plate (Corning, #3401) at a density of 1.5-2.0*10^5 cells/cm^2 for 12-15 days^49. Transepithelial electrical resistance measurements and permeability assay with small tracer molecule sodium fluorescein were used to monitor the tightness of hCMEC/D3 monolayer. Prior to biopanning, hCMEC/D3 cells were incubated in fetal bovine serum depleted medium for 1 h at 37° C., and then 10^11 plaque forming units (pfu) of M13 phage CX7C library (NEB, #E8120S) was added to the donor compartment of the transwell and incubated for 1 h at 37° C. […]
The NGS data from two replicates of MiSeq run were analyzed on Stampede, a supercomputer run on Texas Advanced Computing Center at UT-Austin. First, to confirm the sequence quality and trim the low-quality sequence reads, fastqc and fastx_toolkit were used on the dataset. […]

Substance: NAGHLSQ [Pep-1]
- frequency relative to second most frequent peptide Pep-2: approximately five-fold higher
